Data set [1] can be described thus: Hemato-chemical parameters and tolerability in treated mice. In kind it is in vivo. Particulars: blood after euthanasia day 21; i.p. treatment day 1, 7, 14; means ± SD, n = 8. The procedure:
(§1) Here, 1 × 10^6 A549/DX cells were mixed with 100 μl Matrigel implanted in 6-week-old female nu/nu BALB/C mice (Charles River Laboratories Italia, Calco, Italy), housed (5 per cage) under 12 h light/dark cycle, with food and drinking provided ad libitum. Tumor growth was measured daily by caliper, according to the equation (LxW2)/2, where L = tumor length and W = tumor width. When the tumor reached the volume of 50 mm^3, mice (n = 8/group) were randomized and treated as reported in the following groups, treated on day 1, 7, and 14 after randomization: (1) vehicle group (ctrl), treated intraperitoneally (i.p.) with 100 µL saline solution; (2) cis-Pt group, treated i.p. with 50 mg/kg cis-Pt, dissolved in 100 µL water/10% DMSO solution, according to Kopecka et al., 2015 [53]; (3) F397 group, treated i.p. with 750 nmoles of the compound, dissolved in 100 µL water/10% DMSO solution, corresponding to the maximum tolerated dose (not shown and Table 2); (4) F421 group, treated i.p. with 750 nmoles of the compound, dissolved in 100 µL water/10% DMSO solution i.p, corresponding to the maximum tolerated dose (not shown and Table 2); (5) cis-Pt/F397 group, treated i.p. with 50 mg/kg Cis-Pt and 750 nmoles of F397; (6) cis-Pt/F421 group, treated i.p. with 50 mg/kg cis-Pt and 750 nmoles of F421; (7) MK571 group, treated i.p. with 3 mg/kg MK571 dissolved in 100 µL water/10% DMSO solution, according to Jones et al., 1989 [56]; (8) MK571/F397 group, treated i.p. with 3 mg/kg MK571 and 750 nmoles of F397; (9) MK571/F421 group, treated i.p. with 3 mg/kg MK571 and 750 nmoles of F421. Tumor volumes were monitored daily. Animals were euthanized at day 21 after randomization with zolazepam (0.2 mL/kg) and xylazine (16 mg/kg). Lactate dehydrogenase (LDH), aspartate aminotransferase (AST), alanine aminotransferase (ALT), alkaline phosphatase (AP), creatinine, and creatine phosphokinase (CPK) were measured on blood samples collected immediately after euthanasia, using commercially available kits from Beckman Coulter Inc. (Beckman Coulter, Miami, FL, USA).

Data set [2] relates to A549/DX cells. The experiment in a line: Cell viability (MTT) of A549/DX cells at 72 h, alone and in co-administration. In kind it is cell-based, human. The procedure: Indeed, the accurate detection of cell viability in A549 cells was critical in calculating the SR in a reliable manner.
First, we wondered if there was a correlation between the inhibition of the MRP1 protein and the CS properties of the compounds.
(§2) The determination of cell growth was performed using an MTT assay at 24 or 72 h. On day 1, 10,000 cells/well were seeded into 96-well plates in a volume of 100 μL. […] In all the experiments, the various drug solvents (ethanol, DMSO) were added in each control to evaluate a possible solvent cytotoxicity. After the established incubation time with drugs, 10 μL MTT (0.5 mg/mL) was added to each well, and after 3 h incubation at 37°C, the supernatant was removed. The formazan crystals were solubilized using 100 μL of DMSO and the absorbance values at 570 and 630 nm were determined on the microplate reader Victor 3 from PerkinElmer Life Sciences. The absorbance of the untreated cells was considered equal to 100% cell viability; the viability of cells measured in each experimental condition was expressed as a percentage of viable cells in the considered condition vs. the viability of the untreated cells.

Data set [3] has as its system A549/DX cells. The experiment in a line: In vivo tumor growth of A549/DX xenografts. Also noted: species or system nu/nu BALB/C mice. Particulars: A549/DX xenografts, 50 mg/kg cis-Pt i.p. The procedure:
In order to translate in vivo the capability of F397, F400, and F421 to act as “sensitizers”, A549/DX cells were implanted in immune-deficient BALB/C mice, and once the tumor reached the volume of 50 mm^3, the mice were randomized and treated […] with the vehicle (saline solution) and/or cis-Pt.
as §1

Data set [4] concerns MDCK-MRP1 cells. The experiment in a line: Antiproliferative MTT assay in MDCK-wt and MDCK-MRP1 cells, selectivity ratio. Particulars: EC50 of MDCK cells/EC50 of MDCK-MRP1 cells. In kind it is cell-based, canine. As for the experimental part: Within the search for novel CS agents acting on MRP1 proteins, the compounds selected among the different series of sigma-2 ligands were investigated for their activity at MRP1, paralleled with their cytotoxicity in the parental Madin–Darby canine kidney (MDCK-wt) cells and in the MDR-derived cells (MDCK-MRP1) for the determination of their SR (EC50 parental cells/EC50 MDR cells). The activity at the MRP1 pump was determined measuring the transport inhibition of the pro-fluorescent probe Calcein-AM, an MRP1 substrate, in the MRP1-overexpressing cell line (MDCK-MRP1) by the in vitro biological assay usually performed to study an MRP1 interaction. […] The SR was measured as the EC50 of the MDCK cells/EC50 of the MDCK-MRP1 cells.
as §2
On the technique in general: Tetrazolium dyes change colour on reduction, which living cells bring about.

The target in data set [5] is MRP1 (Homo sapiens, UniProt P33527). The experiment in a line: Calcein-AM transport inhibition in MDCK-MRP1 cells (MRP1 activity).
Description: Each cell line (30,000 cells per well) was seeded into a black CulturePlate 96/well plate with a 100 μL medium and allowed to become confluent overnight. […] In these experimental conditions, the Calcein cell accumulation in the absence and in the presence of the tested compounds was evaluated and the fluorescence basal level was estimated with the untreated cells. In treated wells, the increase in fluorescence with respect to the basal level was measured. EC50 values were determined by fitting the fluorescence increase percentage vs. log(dose).

Here are results for 3 compounds from PMC7247425, “MRP1-Collateral Sensitizers as a Novel Therapeutic Approach in Resistant Cancer Therapy: An In Vitro and In Vivo Study in Lung Resistant Tumor” (International Journal of Molecular Sciences, 2020).

MRP1, sequence (P33527 whole entry): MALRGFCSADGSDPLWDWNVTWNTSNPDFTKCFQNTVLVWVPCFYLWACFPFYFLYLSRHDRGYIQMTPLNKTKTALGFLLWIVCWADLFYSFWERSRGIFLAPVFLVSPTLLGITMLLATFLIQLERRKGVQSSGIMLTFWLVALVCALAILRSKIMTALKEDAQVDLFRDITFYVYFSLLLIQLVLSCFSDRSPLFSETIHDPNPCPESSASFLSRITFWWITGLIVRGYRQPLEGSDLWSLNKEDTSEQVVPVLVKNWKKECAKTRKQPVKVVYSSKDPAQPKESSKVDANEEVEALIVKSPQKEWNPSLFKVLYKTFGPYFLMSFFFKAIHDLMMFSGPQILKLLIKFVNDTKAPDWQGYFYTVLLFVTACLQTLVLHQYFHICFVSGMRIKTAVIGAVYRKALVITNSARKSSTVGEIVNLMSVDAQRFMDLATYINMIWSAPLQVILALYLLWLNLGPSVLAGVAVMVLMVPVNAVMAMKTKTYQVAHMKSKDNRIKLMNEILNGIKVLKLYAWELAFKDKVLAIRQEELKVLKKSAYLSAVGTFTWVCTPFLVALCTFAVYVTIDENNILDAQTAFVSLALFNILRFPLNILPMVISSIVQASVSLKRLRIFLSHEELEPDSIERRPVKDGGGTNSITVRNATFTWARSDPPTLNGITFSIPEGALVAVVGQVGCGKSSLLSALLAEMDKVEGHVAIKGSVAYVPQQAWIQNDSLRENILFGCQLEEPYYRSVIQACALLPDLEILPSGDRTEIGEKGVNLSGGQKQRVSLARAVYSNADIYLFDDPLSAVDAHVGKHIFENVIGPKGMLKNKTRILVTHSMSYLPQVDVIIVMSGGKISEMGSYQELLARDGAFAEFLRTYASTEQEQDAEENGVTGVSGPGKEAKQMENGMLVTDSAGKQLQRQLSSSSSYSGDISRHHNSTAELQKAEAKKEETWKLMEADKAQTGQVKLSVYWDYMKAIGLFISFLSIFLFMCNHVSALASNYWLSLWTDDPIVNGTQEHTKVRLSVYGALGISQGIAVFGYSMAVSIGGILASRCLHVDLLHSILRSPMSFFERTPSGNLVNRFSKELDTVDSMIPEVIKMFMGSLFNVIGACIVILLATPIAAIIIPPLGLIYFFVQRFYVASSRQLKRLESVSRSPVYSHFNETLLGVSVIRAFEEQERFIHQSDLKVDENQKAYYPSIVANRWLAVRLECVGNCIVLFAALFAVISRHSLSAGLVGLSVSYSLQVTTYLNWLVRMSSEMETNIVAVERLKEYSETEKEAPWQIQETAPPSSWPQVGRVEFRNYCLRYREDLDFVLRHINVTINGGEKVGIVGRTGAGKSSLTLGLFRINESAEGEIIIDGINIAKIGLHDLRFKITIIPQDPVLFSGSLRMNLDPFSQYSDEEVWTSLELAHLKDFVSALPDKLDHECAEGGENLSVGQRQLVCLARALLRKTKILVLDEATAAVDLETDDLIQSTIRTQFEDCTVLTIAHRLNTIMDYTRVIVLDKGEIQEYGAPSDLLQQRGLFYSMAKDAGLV

In data set [1], `CN(C)C(=O)CCSC(SCCC(=O)O)c1cccc(/C=C/c2ccc3ccc(Cl)cc3n2)c1` (stereo not drawn) [MK571, reference compound] gave an ALT of 41 ± 7 U/L, an AP of 117 ± 33 U/L, an AST of 101 ± 33 U/L and a CPK of 334 ± 81 U/L. Moreover, in data set [1], the LDH turned out to be 7141 ± 927 U/L. For the same compound, the “Cytotoxicity / antiproliferative effect alone” value in data set [2] (25 μM alone) is listed as “not cytotoxic”.

In data set [1], `N.N.[Cl][Pt][Cl]` [Cis-Pt, cis-platinum, reference compound] showed an ALT of 41 ± 9 U/L, an AP of 129 ± 14 U/L, an AST of 91 ± 34 U/L and a CPK of 259 ± 98 U/L. This compound also displayed an LDH in data set [1] of 7092 ± 542 U/L. In addition, the “Tumor growth, cis-Pt alone” value in data set [3] is “resistance of A549/DX against the standard chemotherapy regimen”. The “Sensitivity to cis-Pt co-administrated with MK571” value in data set [2] (cis-Pt 25 μM + MK571 25 μM) was “restored when co-administrated with MK571”.

For `Fc1ccc(-n2cc(CCCCN3CCC4(CC3)OCc3ccccc34)c3ccccc32)cc1` [Siramesine, siramesine, reference compound], the “SR (selectivity ratio)” value in data set [4] is reported as 0.56. Further, the EC50 in data set [5] is 23.2 ± 4.5 µM.

What is called EC50 is the midpoint of the concentration-response curve.
